This note sets out measurements from US9663496B2, “AMPK-activating heterocyclic compounds and methods for using the same” (Rigel Pharmaceuticals, Inc., priority 2010, dated 2017).

The target in this assay is AMPK. Nature of the assay: AMPK activation, enzyme-linked immunosorbent assay. In kind it is biochemical. Conditions: EC50 for AMPK activation, ELISA. Summed up: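 Test compounds were added, and kinase activation was then detected by immunoassay following established kit procedures.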
For orientation: ELISA stands for enzyme-linked immunosorbent assay.
For `COc1ccc(C(=O)C2CCN(C(=O)c3ccc(C(=O)Nc4ccc(Oc5ccc(C#N)cc5)nc4C)cn3)CC2)cc1` [Compound 478, N-(6-(4-cyanophenoxy)-2-methylpyridin-3-yl)-6-(4-(4-methoxybenzoyl)piperidine-1-carbonyl)nicotinamide], the concentration for a half-maximal effect (EC50) is < 500 nM.
As for `O=C(NC1CCN(Cc2ccc(F)cc2)CC1)c1ccc(C(=O)N2CCC(Oc3ccc(F)cc3)CC2)cn1` [Compound 180, N-(1-(4-fluorobenzyl)piperidin-4-yl)-5-(4-(4-fluorophenoxy)piperidine-1-carbonyl)picolinamide], the concentration giving a half-maximal response (EC50) is < 500 nM.
Regarding `N#Cc1ccc(Oc2ccc(NC(=O)c3ccc(C(=O)N4CCC(S(=O)(=O)c5ccc(F)cc5)CC4)nc3)cn2)cc1` [Compound 472, N-(6-(4-cyanophenoxy)pyridin-3-yl)-6-(4-(4-fluorophenylsulfonyl)piperidine-1-carbonyl)nicotinamide], the 50% effective concentration (EC50) lay in the range of 1000 to 5000 nM.
The value for `N#Cc1ccc(CN2CCC(NC(=O)c3ccc(C(=O)Nc4cccc(Cc5ccccc5)c4)cn3)CC2)cc1` [Compound 5, N^2-(1-(4-cyanobenzyl)piperidin-4-yl)-N^5-(3-benzylphenyl)pyridine-2,5-dicarboxamide] was 500 to 1000 nM.
With `CN1CCN(c2ccc(C(=O)C3CCN(C(=O)c4ccc(C(=O)NC5CCN(Cc6ccc(C#N)cc6)CC5)cn4)CC3)cc2)CC1` [Compound 243, N-(1-(4-cyanobenzyl)piperidin-4-yl)-6-(4-(4-(4-methylpiperazin-1-yl)benzoyl)piperidine-1-carbonyl)nicotinamide] the figure was < 500 nM; with `O=C(Nc1ccc(Oc2ccc(F)cc2)nc1)c1ccc(C(=O)N2CCC(C(=O)c3ccc(F)cc3F)CC2)cn1` [Compound 342, 5-(4-(2,4-difluorobenzoyl)piperidine-1-carbonyl)-N-(6-(4-fluorophenoxy)pyridin-3-yl)picolinamide], < 500 nM.
With `N#Cc1ccc(OC2CCN(C(=O)c3ccc(C(=O)N[C@H]4CC[C@@H](Oc5ccc(C(F)(F)F)cc5)CC4)nc3)CC2)cc1` [Compound 193, 5-(4-(4-cyanophenoxy)piperidine-1-carbonyl)-N-((cis)-4-(4-(trifluoromethyl)phenoxy)cyclohexyl) picolinamide], the EC50 is < 500 nM.
As to `N#Cc1ccc(CN2CCC(NC(=O)c3ccc(C(=O)N4CCC(Oc5cccc(C#N)c5)CC4)cn3)CC2)cc1` [Compound 155, N-(1-(4-cyanobenzyl)piperidin-4-yl)-5-(4-(3-cyanophenoxy)piperidine-1-carbonyl)picolinamide], the EC50 was < 500 nM.
With `CC(=O)c1ccc(OC2CCN(C(=O)c3ccc(C(=O)NC4CCN(Cc5ccc(C#N)cc5)CC4)cn3)CC2)cc1` [Compound 390, 6-(4-(4-acetylphenoxy)piperidine-1-carbonyl)-N-(1-(4-cyanobenzyl)piperidin-4-yl)nicotinamide] the figure was < 500 nM; with `N#Cc1ccc(CN2CCC(NC(=O)c3ccc(N4CCC(C(=O)c5ccc(Cl)cc5)CC4)cn3)CC2)cc1` [Compound 266, 5-(4-(4-chlorobenzoyl)piperidin-1-yl)-N-(1-(4-cyanobenzyl)piperidin-4-yl)picolinamide], < 500 nM; with `O=C(NC1CCN(Cc2ccc(F)cc2)CC1)c1ccc(C(=O)N2CCC(Oc3ccc(C(F)(F)F)cc3)CC2)cn1` [Compound 179, N-(1-(4-fluorobenzyl)piperidin-4-yl)-5-(4-(4-(trifluoromethyl)phenoxy)piperidine-1-carbonyl)picolinamide], < 500 nM.
For `N#Cc1ccc(O[C@H]2CC[C@@H](NC(=O)c3ccc(C(=O)N4CCC(C(=O)c5ccc(N6CCCC6)cc5)CC4)nc3)CC2)cc1` [Compound 442, N-((cis)-4-(4-cyanophenoxy)cyclohexyl)-6-(4-(4-(pyrrolidin-1-yl)benzoyl)piperidine-1-carbonyl)nicotinamide], the half-maximal effective concentration (EC50) is < 500 nM.
Regarding `COc1ccc(CN2CCC(NC(=O)c3ccc(C(=O)N4CCC(C(=O)c5ccc(N6CCCC6)cc5)CC4)nc3)CC2)cc1F` [Compound 443, N-(1-(3-fluoro-4-methoxybenzyl)piperidin-4-yl)-6-(4-(4-(pyrrolidin-1-yl)benzoyl)piperidine-1-carbonyl)nicotinamide], the EC50 is < 500 nM.
Consider `COc1ccc(CN2CCC(NC(=O)c3ccc(C(=O)N4CCC(Oc5ccc(S(C)(=O)=O)cc5)CC4)cn3)CC2)cc1` [Compound 202, N-(1-(4-methoxybenzyl)piperidin-4-yl)-5-(4-(4-(methylsulfonyl)phenoxy)piperidine-1-carbonyl)picolinamide], for which the EC50 is < 500 nM.
For the compound `CS(=O)(=O)c1ccc(OC2CCN(C(=O)c3ccc(C(=O)NC4CCN(Cc5cc(F)cc(F)c5)CC4)cn3)CC2)cc1` [Compound 236, N-(1-(3,5-difluorobenzyl)piperidin-4-yl)-6-(4-(4-(methylsulfonyl)phenoxy)piperidine-1-carbonyl)nicotinamide], the EC50 is < 500 nM.
Consider `N#Cc1ccc(OC2CCN(C(=O)c3ccc(C(=O)NC4CCN(Cc5ccc(N6CCOCC6)cc5)CC4)cn3)CC2)cc1` [Compound 337, 6-(4-(4-cyanophenoxy)piperidine-1-carbonyl)-N-(1-(4-morpholinobenzyl)piperidin-4-yl)nicotinamide], for which the EC50 is < 500 nM.
With `CS(=O)(=O)c1ccc(Oc2ccc(NC(=O)c3ccc(C(=O)N4CCC(C(=O)c5ccc(F)cc5F)CC4)nc3)cn2)cc1` [Compound 466, 6-(4-(2,4-difluorobenzoyl)piperidine-1-carbonyl)-N-(6-(4-(methylsulfonyl)phenoxy)pyridin-3-yl)nicotinamide] the figure was < 500 nM; with `CS(=O)(=O)c1ccc(OC2CCN(C(=O)c3ccc(C(=O)NC4CCN(Cc5ccc(F)cc5)CC4)cn3)CC2)cc1` [Compound 396, N-(1-(4-fluorobenzyl)piperidin-4-yl)-6-(4-(4-(methylsulfonyl)phenoxy)piperidine-1-carbonyl)nicotinamide], 1000 to 5000 nM.
`N#Cc1ccc(CN2CCC(NC(=O)c3ncc(C(=O)N4CCN(Cc5ccc(F)cc5)CC4)cc3C#CCNC(=O)COCCOCCOCCOCCNC(=O)CCCC[C@@H]3SC[C@@H]4NC(=O)N[C@@H]43)CC2)cc1` [Compound 159, N-(1-(4-cyanobenzyl)piperidin-4-yl)-3-(5,20-dioxo-24-((3aS,4S,6aR)-2-oxohexahydro-1H-thieno[3,4-d]imidazol-4-yl)-7,10,13,16-tetraoxa-4,19-diazatetracos-1-ynyl)-5-(4-(4-fluorobenzyl)piperazine-1-carbonyl)picolinamide] registered an EC50 of 1000 to 5000 nM.
With `N#Cc1ccc(O[C@H]2CC[C@@H](NC(=O)c3ccc(C(=O)N4CCC(Oc5ccc(C(F)(F)F)cc5)CC4)cn3)CC2)cc1` [Compound 190, N-((cis)-4-(4-cyanophenoxy)cyclohexyl)-5-(4-(4-(trifluoromethyl)phenoxy)piperidine-1-carbonyl)picolinamide] the figure was < 500 nM; with `O=C(Nc1cccc(-c2ccccc2)c1)c1ccc(C(=O)N2CCN(Cc3ccc(F)cc3)CC2)cn1` [Compound 12], 5000 to 10000 nM; with `N#Cc1ccc(CN2CCC(NC(=O)c3ccc(C(=O)N4CCC(Oc5ccc(F)cc5F)CC4)nc3)CC2)cc1` [Compound 345, N-(1-(4-cyanobenzyl)piperidin-4-yl)-6-(4-(2,4-difluorophenoxy)piperidine-1-carbonyl)nicotinamide], < 500 nM.
In the case of `Cc1cc(CN2CCN(C(=O)c3ccc(C(=O)NC4CCN(Cc5ccccc5)CC4)nc3)CC2)no1` [Compound 85, N-(1-benzylpiperidin-4-yl)-5-(4-((5-methylisoxazol-3-yl)methyl)piperazine-1-carbonyl)picolinamide], the EC50 was 1000 to 5000 nM.
Consider `COc1ccc(CN2CCC(NC(=O)c3ccc(C(=O)N4CCC(Oc5ccc(F)cc5)CC4)cn3)CC2)cc1` [Compound 161, 5-(4-(4-fluorophenoxy)piperidine-1-carbonyl)-N-(1-(4-methoxybenzyl)piperidin-4-yl)picolinamide], for which the EC50 was < 500 nM.
The value for `COc1ccc(CN2CCN(C(=O)c3ccc(C(=O)NC4CCN(Cc5ccc(C#N)cc5)CC4)nc3)CC2)cc1` [Compound 101, N-(1-(4-cyanobenzyl)piperidin-4-yl)-5-(4-(4-methoxybenzyl)piperazine-1-carbonyl)picolinamide] was < 500 nM; that for `O=C(NC1CCN(Cc2cc(F)cc(F)c2)CC1)c1ccc(C(=O)N2CCC(C(=O)c3ccc(F)cc3)CC2)cn1` [Compound 288, N-(1-(3,5-difluorobenzyl)piperidin-4-yl)-5-(4-(4-fluorobenzoyl)piperidine-1-carbonyl)picolinamide] was < 500 nM; that for `COc1ccc(C(=O)C2CCN(C(=O)c3ccc(C(=O)N[C@H]4CC[C@@H](Oc5ccc(C(F)(F)F)cc5)CC4)nc3)CC2)cc1` [Compound 192, 5-(4-(4-methoxybenzoyl)piperidine-1-carbonyl)-N-((cis)-4-(4-(trifluoromethyl)phenoxy)cyclohexyl) picolinamide] was < 500 nM.
For the compound `CC(=O)c1ccc(Oc2ccc(NC(=O)c3ccc(C(=O)N4CCC(S(=O)(=O)c5ccc(F)cc5)CC4)nc3)cn2)cc1` [Compound 473, N-(6-(4-acetylphenoxy)pyridin-3-yl)-6-(4-(4-fluorophenylsulfonyl)piperidine-1-carbonyl)nicotinamide], the EC50 was 1000 to 5000 nM.
The value for `CS(=O)(=O)c1ccc(OC2CCN(C(=O)c3ccc(C(=O)NC4CCN(Cc5cccc(OC(F)(F)F)c5)CC4)nc3)CC2)cc1` [Compound 242, 5-(4-(4-(methylsulfonyl)phenoxy)piperidine-1-carbonyl)-N-(1-(3-(trifluoromethoxy)benzyl)piperidin-4-yl)picolinamide] was < 500 nM; that for `N#Cc1ccc(CN2CCC(NC(=O)c3ccc(C(=O)N4CCN(c5ccc(C#N)cc5)CC4)cn3)CC2)cc1` [Compound 340, N-(1-(4-cyanobenzyl)piperidin-4-yl)-5-(4-(4-cyanophenyl)piperazine-1-carbonyl)picolinamide] was < 500 nM.
The value for `O=C(c1ccc(Nc2ccc(-c3ccccc3)cc2)nc1)N1CCN(Cc2ccc(F)cc2)CC1` [Compound 37, (6-(4-phenylphenylamino)pyridin-3-yl)(4-(4-fluorobenzyl)piperazin-1-yl)methanone] was 5000 to 10000 nM.

The term EC50 denotes the concentration needed to bring the measured effect to its halfway point.
